Assay [1] deals with T1, system Xc^− (Homo sapiens, UniProt Q9UPY5).
T1 sequence (Q9UPY5 1-501): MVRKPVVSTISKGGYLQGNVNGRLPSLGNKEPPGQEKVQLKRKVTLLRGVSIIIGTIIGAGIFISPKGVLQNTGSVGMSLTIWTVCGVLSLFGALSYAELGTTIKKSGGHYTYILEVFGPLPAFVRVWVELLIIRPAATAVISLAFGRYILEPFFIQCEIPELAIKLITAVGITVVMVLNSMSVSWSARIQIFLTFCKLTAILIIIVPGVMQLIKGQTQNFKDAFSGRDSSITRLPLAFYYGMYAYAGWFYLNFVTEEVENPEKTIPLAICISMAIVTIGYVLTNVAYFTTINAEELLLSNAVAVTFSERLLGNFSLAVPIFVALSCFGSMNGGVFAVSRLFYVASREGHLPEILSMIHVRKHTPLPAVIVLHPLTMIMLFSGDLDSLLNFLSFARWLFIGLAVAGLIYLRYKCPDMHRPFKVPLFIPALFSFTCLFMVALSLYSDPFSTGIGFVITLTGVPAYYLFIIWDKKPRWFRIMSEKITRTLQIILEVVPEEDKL
T1 sequence (P08195 1-529 partner): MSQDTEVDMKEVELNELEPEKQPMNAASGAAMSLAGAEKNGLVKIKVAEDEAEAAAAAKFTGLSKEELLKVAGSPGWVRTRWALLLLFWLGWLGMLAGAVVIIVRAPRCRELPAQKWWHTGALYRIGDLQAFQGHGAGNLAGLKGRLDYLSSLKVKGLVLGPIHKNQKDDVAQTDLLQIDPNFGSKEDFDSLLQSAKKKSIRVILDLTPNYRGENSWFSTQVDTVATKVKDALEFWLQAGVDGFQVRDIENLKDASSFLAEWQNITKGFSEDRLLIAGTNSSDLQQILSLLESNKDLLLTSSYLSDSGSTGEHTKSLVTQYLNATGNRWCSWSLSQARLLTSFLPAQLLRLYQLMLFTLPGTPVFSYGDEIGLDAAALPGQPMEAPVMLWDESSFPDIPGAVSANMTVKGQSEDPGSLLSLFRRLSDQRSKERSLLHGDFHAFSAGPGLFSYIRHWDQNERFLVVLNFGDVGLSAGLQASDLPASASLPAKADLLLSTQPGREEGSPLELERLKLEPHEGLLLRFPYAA
Kind of assay: [^14C]L-Cystine uptake assay. The format is cell-based. More on the design: endogenous in cells; host or cells: H4 cells. To be noted: H4 cells, sodium-free HEPES buffer, 0.5 μM L-[14C]Cystine and 4.5 μM L-Cystine, 1 hour at 37° C.; read-out: pIC50 [^14C] L-Cystine uptake assay (converted). The essentials:
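Compound effect is given as pIC50, taken between controls of 1% DMSO and 50 μM Erastin. Human H4 cells were pretreated 15 min with compound in sodium-free buffer, then took up 0.5 μM [14C]cystine with 4.5 μM cold cystine for 1 hour at 37° C, read by scintillation proximity counting.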

Assay [2] concerns the target T1, system Xc^−. Kind of assay: Cystine-induced glutamate release assay. The class given is cell-based. More on the design: endogenous in cells; host or cells: H4 cells. The conditions noted are these: H4 cells, sodium-free HEPES buffer, 50 μM L-Cystine, 2 hours, Amplex Red glutamate readout; for IC50: read-out: pIC50 Cystine-induced glutamate release assay (converted). The procedure, abridged: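 IC50 (reported as pIC50) normalized to DMSO 1% and Erastin 50 μM controls, from Amplex Red fluorescence of glutamate exported into supernatant. H4 cells were washed into sodium-free buffer to exclude EAAT transport, then given compound with 50 μM L-cystine for 2 h in the incubator.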

`CC1C(=O)N(CC(=O)Nc2ccc(C(F)F)cc2)c2cc(C3(F)CC3)ncc2-c2cc(F)cnc21` (single isomer, unassigned) [#325, N-[4-(difluoromethyl)phenyl]-2-[14-fluoro-5-(1-fluorocyclopropyl)-10-methyl-9-oxo-4,8,12-triazatricyclo[9.4.0.0^2,7]pentadeca-1(11),2,4,6,12,14-hexaen-8-yl]acetamide]: the IC50 in assay [1] was below 15.8 nM; in assay [2], 15.8 to 39.8 nM.
On the same counts, the results for `CC1C(=O)N(CC(=O)Nc2ccc(Cl)c(F)c2)c2cc(C3(F)CC3)ncc2-c2cc(F)cnc21` (single isomer, unassigned) [#326, N-(4-chloro-3-fluoro-phenyl)-2-[14-fluoro-5-(1-fluorocyclopropyl)-10-methyl-9-oxo-4,8,12-triazatricyclo[9.4.0.0^2,7]pentadeca-1(15),2,4,6,11,13-hexaen-8-yl]acetamide] are below 15.8 nM and below 15.8 nM.
The corresponding values for `Cc1cc2c(cn1)-c1cc(F)cnc1C(C)C(=O)N2CC(=O)Nc1ccc(Cl)c(F)c1` (single isomer, unassigned) [#327, N-(4-chloro-3-fluoro-phenyl)-2-[14-fluoro-5,10-dimethyl-9-oxo-4,8,12-triazatricyclo[9.4.0.0^2,7]pentadeca-1(15),2,4,6,11,13-hexaen-8-yl]acetamide] are below 15.8 nM and below 15.8 nM.
In the case of `Cc1cc2c(cn1)-c1cc(F)cnc1C(C)C(=O)N2CC(=O)Nc1ccc(C(F)F)cc1` (single isomer, unassigned) [#328, N-[4-(difluoromethyl)phenyl]-2-[14-fluoro-5,10-dimethyl-9-oxo-4,8,12-triazatricyclo[9.4.0.0^2,7]pentadeca-1(15),2,4,6,11,13-hexaen-8-yl]acetamide], the IC50 in assay [1] is 15.8 to 39.8 nM; in assay [2] it was below 15.8 nM.
On to `COc1nc(OC(F)F)cc2c1-c1cccnc1C(C)C(=O)N2CC(=O)Nc1ccc(C(F)F)cc1` (single isomer, unassigned) [#329, 2-[5-(difluoromethoxy)-3-methoxy-10-methyl-9-oxo-4,8,12-triazatricyclo[9.4.0.0^2,7]pentadeca-1(15),2(7),3,5,11,13-hexaen-8-yl]-N-[4-(difluoromethyl)phenyl]acetamide], for which the IC50 in assay [1] and in assay [2] was 15.8 to 39.8 nM throughout.
For `COc1nc(OC(F)F)cc2c1-c1cccnc1C(C)C(=O)N2CC(=O)Nc1ccc(C(F)F)cc1` (single isomer, unassigned) [#330, 2-[5-(difluoromethoxy)-3-methoxy-10-methyl-9-oxo-4,8,12-triazatricyclo[9.4.0.0^2,7]pentadeca-1(15),2(7),3,5,11,13-hexaen-8-yl]-N-[4-(difluoromethyl)phenyl]acetamide], the IC50 in assay [1] is below 15.8 nM. Further, the “pIC50 Cystine-induced glutamate release assay” value in assay [2] was “C (about 7.40 < pIC50 ≤ about 7.80)”.
With `CC1C(=O)N(CC(=O)Nc2ccc(C(F)(F)F)nc2)c2cc(Cl)cc(F)c2-c2cccnc21` (single isomer, unassigned) [#331, 2-[9-chloro-11-fluoro-5-methyl-6-oxo-5H-pyrido[2,3-d][1]benzazepin-7-yl]-N-[6-(trifluoromethyl)-3-pyridyl]acetamide], the IC50 in assay [1] was 15.8 to 39.8 nM; in assay [2] it was 39.8 to 100 nM.
Turning to `CC1C(=O)N(CC(=O)Nc2ccc(C(F)F)cc2)c2cc(Cl)cc(F)c2-c2cccnc21` (single isomer, unassigned) [#332, 2-[9-chloro-11-fluoro-5-methyl-6-oxo-5H-pyrido[2,3-d][1]benzazepin-7-yl]-N-[4-(difluoromethyl)phenyl]acetamide], the results for the IC50 in assay [1] and in assay [2] were below 15.8 nM and 15.8 to 39.8 nM, respectively.
Turning to `CC1C(=O)N(CC(=O)Nc2ccc(C(F)(F)F)nc2)c2cc(N3CC(F)(F)C3)ccc2-c2cccnc21` (single isomer, unassigned) [#333, 2-[9-(3,3-difluoroazetidin-1-yl)-5-methyl-6-oxo-5H-pyrido[2,3-d][1]benzazepin-7-yl]-N-[6-(trifluoromethyl)-3-pyridyl]acetamide], the IC50 was 15.8 to 39.8 nM in assay [1] and 39.8 to 100 nM in assay [2].
On the same counts, the results for `CC1C(=O)N(CC(=O)Nc2ccc(C(F)F)cc2)c2cc(N3CC(F)(F)C3)ccc2-c2cccnc21` (single isomer, unassigned) [#334, 2-[9-(3,3-difluoroazetidin-1-yl)-5-methyl-6-oxo-5H-pyrido[2,3-d][1]benzazepin-7-yl]-N-[4-(difluoromethyl)phenyl]acetamide] are below 15.8 nM and below 15.8 nM.
In the case of `COc1cc2c(c(OC)n1)-c1cccnc1C(C)C(=O)N2CC(=O)Nc1ccc(C(F)F)cc1` (single isomer, unassigned) [#335, N-[4-(difluoromethyl)phenyl]-2-[3,5-dimethoxy-10-methyl-9-oxo-4,8,12-triazatricyclo[9.4.0.0^2,7]pentadeca-1(15),2(7),3,5,11,13-hexaen-8-yl]acetamide], the IC50 in assay [1] and in assay [2] was below 15.8 nM throughout.
For `COc1cc2c(c(OC)n1)-c1cccnc1C(C)C(=O)N2CC(=O)Nc1ccc(C(F)(F)F)cn1` (single isomer, unassigned) [#336, 2-[3,5-dimethoxy-10-methyl-9-oxo-4,8,12-triazatricyclo[9.4.0.0^2,7]pentadeca-1(15),2(7),3,5,11,13-hexaen-8-yl]-N-[5-(trifluoromethyl)-2-pyridyl]acetamide], the IC50 in assay [1] is 39.8 to 100 nM; in assay [2], 15.8 to 39.8 nM.
For the compound `COc1cc2c(c(OC)n1)-c1cccnc1C(C)C(=O)N2CC(=O)Nc1ccc(C(F)(F)F)nc1` (single isomer, unassigned) [#337, 2-[3,5-dimethoxy-10-methyl-9-oxo-4,8,12-triazatricyclo[9.4.0.0^2,7]pentadeca-1(15),2(7),3,5,11,13-hexaen-8-yl]-N-[6-(trifluoromethyl)-3-pyridyl]acetamide], the IC50 in assay [1] and in assay [2] was 15.8 to 39.8 nM throughout.
Take `CC1C(=O)N(CC(=O)Nc2ccc(Cl)c(F)c2)c2cc(C(F)F)ncc2-c2cccnc21` (single isomer, unassigned) [#342, N-(4-chloro-3-fluoro-phenyl)-2-[5-(difluoromethyl)-10-methyl-9-oxo-4,8,12-triazatricyclo[9.4.0.0^2,7]pentadeca-1(15),2,4,6,11,13-hexaen-8-yl]acetamide]: the IC50 in assay [1] and in assay [2] was below 15.8 nM in each case.
On to `CC1C(=O)N(CC(=O)Nc2ccc(Cl)c(F)c2)c2cc(C(F)F)ncc2-c2cc(F)cnc21` (single isomer, unassigned) [#348, N-(4-chloro-3-fluoro-phenyl)-2-[5-(difluoromethyl)-14-fluoro-10-methyl-9-oxo-4,8,12-triazatricyclo[9.4.0.0^2,7]pentadeca-1(15),2,4,6,11,13-hexaen-8-yl]acetamide], for which the IC50 in assay [1] is below 15.8 nM; in assay [2] it was 15.8 to 39.8 nM.
`CC1C(=O)N(CC(=O)Nc2ccc(C(F)F)cc2)c2cc(C(F)F)c(=O)n(C)c2-c2ccccc21` (single isomer, unassigned) [#357, 2-[3-(difluoromethyl)-1,7-dimethyl-2,6-dioxo-7H-pyrido[3,2-d][3]benzazepin-5-yl]-N-[4-(difluoromethyl)phenyl]acetamide]: the IC50 in assay [1] and in assay [2] was 15.8 to 39.8 nM in each case.
Turning to `Cc1cc2c(c(=O)n1C)-c1ccnn1C(C)C(=O)N2CC(=O)Nc1ccc(C(F)F)cc1` (single isomer, unassigned) [#358, N-[4-(difluoromethyl)phenyl]-2-[7,12,13-trimethyl-8,14-dioxo-5,6,9,13-tetrazatricyclo[8.4.0.0^2,6]tetradeca-1(10),2,4,11-tetraen-9-yl]acetamide], the IC50 in assay [1] is 100 to 501 nM; in assay [2] it was 15.8 to 39.8 nM.
